According to US20100035878A1, “INHIBITORS OF C-JUN N-TERMINAL KINASES FOR THE TREATMENT OF NEURODEGENERATIVE DISORDERS RELATING TO APOPTOSIS AND/OR INFLAMMATION” (EISAI R & D MANAGEMENT CO., LTD., priority 2005, published 2010):

Molecular target: JNK3 (Homo sapiens, UniProt P53779)
Test: JNK3 SPA assay (phosphorylation of GST-c-Jun)
Assay type: biochemical
Details: GST-c-Jun substrate, [γ-33P] ATP, 30 minutes at room temperature
Experimental: JNK1, JNK2, JNK3-SPA Assay
• 1. Compound is dissolved in DMSO to a convenient concentration and this is diluted in 10% DMSO to a five times concentrate of the desired starting concentration (frequently 1:100). • 2. 10 μl of 500 mM EDTA is added to alternative wells of the Opti-plate row, which will receive kinase reaction plus DMSO. This creates the negative control. • 3. For the JNK2 and JNK3 assay, compounds are prepared in six 2-fold dilutions with water and each concentration is tested in duplicate. For the JNK1 assay compounds are prepared in four 5-fold dilutions with water which are tested in triplicate. Controls are treated identically. • 4. 20 μl per well of each compound concentration is transferred to an Opti-plate, in duplicate. • 5. 30 μl (JNK2/3 SPA) or 50 μl (JNK1 SPA) of substrate solution (25 mM HEPES pH 7.5, 10 mM magnesium acetate with 3.33 µM ATP (JNK2/3) or 2 µM ATP (JNK1), approximately 7.5 kBq [γ-^33P] ATP, GST-c-Jun, in water) is added to each well. • 6. 50 μl (JNK2/3 SPA) or 30 μl (JNK1 SPA) of kinase solution (JNK in 25 mM HEPES pH 7.5, 10 mM Mg Acetate) is added to each well.
• 7. The plate is incubated for 30 minutes at room temperature. • 8. 100 μl of bead/stop solution is added to each well (5 mg/ml glutathione-PVT-SPA beads, 40 mM ATP in PBS). • 9. Plates are sealed and incubated for 30 minutes at room temperature, centrifuged for 10 minutes at 2500 g and counted. • 10. The IC50 values are calculated as the concentration of the compound being tested at which the phosphorylation of c-Jun is decreased to 50% of the control value.

JNK3, sequence (P53779 whole entry): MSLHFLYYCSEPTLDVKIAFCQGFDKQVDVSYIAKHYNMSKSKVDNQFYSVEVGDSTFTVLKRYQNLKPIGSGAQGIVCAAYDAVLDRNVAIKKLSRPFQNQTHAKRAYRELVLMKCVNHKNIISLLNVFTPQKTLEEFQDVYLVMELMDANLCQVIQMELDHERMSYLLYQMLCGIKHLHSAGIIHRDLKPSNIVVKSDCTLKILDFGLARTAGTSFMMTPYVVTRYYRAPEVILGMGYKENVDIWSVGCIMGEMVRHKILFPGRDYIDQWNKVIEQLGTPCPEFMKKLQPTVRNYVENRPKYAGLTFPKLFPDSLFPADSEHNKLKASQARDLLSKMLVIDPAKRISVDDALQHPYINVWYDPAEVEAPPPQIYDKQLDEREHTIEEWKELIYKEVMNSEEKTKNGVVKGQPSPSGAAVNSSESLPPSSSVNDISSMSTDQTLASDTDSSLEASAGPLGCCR

Row | IC50 [µM] | Structure (SMILES)
1 | < 2 | COCCOc1cnc2[nH]cc(-c3cnn(C)c3)c2c1
2 | < 0.2 | Cn1cc(-c2c[nH]c3ncc(CC4=CCCC4)cc23)cn1
3 | < 0.5 | Cn1cc(-c2c[nH]c3ncc(OCCc4ccccc4)cc23)cn1
4 | < 2 | Oc1cnc2[nH]cc(-c3cn[nH]c3)c2c1
5 | < 0.1 | CC(C)Cc1cnc2[nH]cc(-c3cnn(C)c3)c2c1
6 | < 0.1 | CCCCSc1cnc2[nH]cc(-c3cnn(C)c3)c2c1
7 | < 0.2 | CC(C)Cc1cnc2[nH]cc(-c3csc(C(=O)N4CCCCC4)n3)c2c1
8 | < 0.2 | Cn1cc(-c2c[nH]c3ncc(CC4CCC(=O)CC4)cc23)cn1
9 | < 0.5 | CCCOc1cnc2[nH]cc(-c3cnn(C)c3)c2c1
10 | < 0.2 | O=C(O)c1ccccc1C(=O)Nc1cnc2[nH]cc(-c3cncs3)c2c1
11 | < 0.5 | Cn1cc(-c2c[nH]c3ncc(Cn4ccc5ccccc54)cc23)cn1
12 | < 0.5 | Cn1cc(-c2c[nH]c3ncc(OCc4ccccc4)cc23)cn1
13 | < 0.5 | CCCCCCOc1cnc2[nH]cc(-c3cnn(C)c3)c2c1
14 | < 0.5 | CCOc1cnc2[nH]cc(-c3cnn(C)c3)c2c1
15 | < 0.2 | CCCCCc1cnc2[nH]cc(-c3cnn(C)c3)c2c1
16 | < 0.5 | Cn1cc(-c2c[nH]c3ncc(OCC4CC4)cc23)cn1
17 | < 0.2 | Cn1cc(-c2c[nH]c3ncc(CC4CCN(Cc5ccccc5)CC4)cc23)cn1
18 | < 0.2 | CCCCCc1cnc2[nH]cc(-c3csc(C(=O)N4CCN(C)CC4)n3)c2c1
19 | < 1 | Cc1cccc(Oc2cnc3[nH]cc(-c4cnn(C)c4)c3c2)c1
20 | < 0.2 | CCCCCOc1cnc2[nH]cc(-c3cnn(C)c3)c2c1
21 | < 0.5 | Cn1cc(-c2c[nH]c3ncc(Oc4ccccc4)cc23)cn1
22 | < 0.1 | Cn1cc(-c2c[nH]c3ncc(CC4CCCC4)cc23)cn1

Row | IC50 [µM] | Structure (SMILES)
23 | < 1 | Cn1cc(-c2c[nH]c3ncc(CN4CCCCC4)cc23)cn1
24 | < 0.5 | CN(C)c1ccc(Oc2cnc3[nH]cc(-c4cnn(C)c4)c3c2)cc1
25 | < 0.2 | Cn1cc(-c2c[nH]c3ncc(CC4=CCCCC4)cc23)cn1
26 | < 1 | Cn1cc(-c2c[nH]c3ncc(CCCCO)cc23)cn1
27 | < 0.1 | CC(C)Cc1cnc2[nH]cc(-c3csc(C(=O)N4CCN(C)CC4)n3)c2c1
28 | < 0.5 | Cn1cc(-c2c[nH]c3ncc(CCC(C)(C)C)cc23)cn1
29 | < 0.5 | CCCCCc1cnc2[nH]cc(-c3csc(C(=O)N(C)C)n3)c2c1
30 | < 1 | CC(C)Cc1cnc2[nH]cc(-c3csc(C4CCN(C)CC4)n3)c2c1
31 | < 1 | CC(C)(C)OC(=O)Nc1cnc2[nH]cc(-c3cn[nH]c3)c2c1
32 | < 0.2 | CC(C)Cc1cnc2[nH]cc(-c3csc(C(=O)N4CCOCC4)n3)c2c1
33 | < 0.2 | CCCCCc1cnc2[nH]cc(-c3csc(C(=O)N4CCCCC4)n3)c2c1
34 | < 0.1 | CCCCCCCc1cnc2[nH]cc(-c3cnn(C)c3)c2c1
35 | < 0.2 | CN(C)c1cccc(Sc2cnc3[nH]cc(-c4cnn(C)c4)c3c2)c1
36 | < 0.2 | Cn1cc(-c2c[nH]c3ncc(CCC4CCCCC4)cc23)cn1
37 | < 0.2 | CN1CCN(C2CCC(Cc3cnc4[nH]cc(-c5cnn(C)c5)c4c3)CC2)CC1 (centres unmarked)
38 | < 0.5 | Cc1ccc(Oc2cnc3[nH]cc(-c4cnn(C)c4)c3c2)cc1
39 | < 0.5 | C#CCOc1cnc2[nH]cc(-c3cnn(C)c3)c2c1
40 | < 0.5 | CC(C)Cc1cnc2[nH]cc(-c3cnn(CCN4CCOCC4)c3)c2c1
41 | < 0.2 | CN(C)C1CCC(Cc2cnc3[nH]cc(-c4cnn(C)c4)c3c2)CC1 (centres unmarked)
42 | < 2 | CCOC(=O)COc1cnc2[nH]cc(-c3cnn(C)c3)c2c1
43 | < 0.2 | Cn1cc(-c2c[nH]c3ncc(OC4CCCC4)cc23)cn1
44 | < 0.2 | Cn1cc(-c2c[nH]c3ncc(Cc4ccccc4)cc23)cn1

Row | IC50 [µM] | Structure (SMILES)
45 | < 0.5 | Nc1cnc2[nH]cc(-c3cn[nH]c3)c2c1
46 | < 0.5 | Cc1ccccc1Oc1cnc2[nH]cc(-c3cnn(C)c3)c2c1
47 | < 0.2 | CC(C)CCCc1cnc2[nH]cc(-c3cnn(C)c3)c2c1
48 | < 0.1 | Cn1cc(-c2c[nH]c3ncc(CC4CCC(O)CC4)cc23)cn1 (centres unmarked)
49 | < 0.5 | CCCCCc1cnc2[nH]cc(-c3csc(C(=O)N4CCOCC4)n3)c2c1
50 | < 1 | COc1cnc2[nH]cc(-c3cn[nH]c3)c2c1
51 | < 1 | CCCCS(=O)(=O)c1cnc2[nH]cc(-c3cn[nH]c3)c2c1
52 | < 0.1 | CCCCCCCCc1cnc2[nH]cc(-c3cnn(C)c3)c2c1
53 | < 0.1 | CCCc1cnc2[nH]cc(-c3cnn(C)c3)c2c1
54 | < 0.2 | Cn1cc(-c2c[nH]c3ncc(CC4CCC(N5CCOCC5)CC4)cc23)cn1 (centres unmarked)
55 | < 0.5 | C=CCOc1cnc2[nH]cc(-c3cnn(C)c3)c2c1
56 | < 0.5 | [O-][S+](c1ccccc1)c1cnc2[nH]cc(-c3cn[nH]c3)c2c1 (centres unmarked)
57 | < 0.5 | Cn1cc(-c2c[nH]c3ncc(CN4CCc5ccccc54)cc23)cn1
58 | < 0.1 | Cn1cc(-c2c[nH]c3ncc(CC4CCCCC4)cc23)cn1
59 | < 0.2 | c1ccc(Sc2cnc3[nH]cc(-c4cn[nH]c4)c3c2)cc1
60 | < 0.5 | Cn1cc(-c2c[nH]c3ncc(OCC4CCCCC4)cc23)cn1
61 | < 0.5 | O=C(Nc1cnc2[nH]cc(-c3ccoc3)c2c1)c1ccc(F)cc1
62 | < 0.5 | CCCCOc1cnc2[nH]cc(-c3cnn(C)c3)c2c1
63 | < 0.1 | Cn1cc(-c2c[nH]c3ncc(CC4CCC4)cc23)cn1
64 | < 1 | Cn1cc(-c2c[nH]c3ncc(Oc4ccc(F)cc4)cc23)cn1
65 | < 1 | CCCC[S+]([O-])c1cnc2[nH]cc(-c3cn[nH]c3)c2c1 (centres unmarked)
